Where two headings read alike, the source gives them in different places.

For data set [1] the following is noted: in the long run (Kramer et al.); cited from earlier work.
The conditions of data set [2]: rat brain (Golovko and Murphy 2006); cited from earlier work.
The conditions of data set [3]: animal models, incorporated in the brain (Fa 2005); cited from earlier work.
Data set [4] can be described thus: CSF fatty acid analysis (passage of the blood-brain barrier). Format: in vivo, human. Conditions: humans, given as LO+CLA. The procedure: At baseline and during the 3rd visit, aliquots of cerebrospinal fluid (CSF) were collected by lumbar puncture in all patients. Blood and CSF samples were centrifuged and stored at −80° C., until analyses.
The CSF samples were analysed for fatty acid composition, in order to verify whether CLA and erucic acid are able to pass, and to what extent, the blood-brain barrier.
Total lipids were extracted from plasma or CSF using chloroform/methanol 2:1 (v/v) (Folch J, Lees M, Sloane-Stanley GH. A simple method for the isolation and purification of total lipid from animal tissues. J. Biol. Chem. 1957; 226: 497-509). Separation of phospholipids from total lipids was performed as previously reported (Banni S, Carta G, Angioni E, Murru E, Scanu P, Melis MP, et al. Distribution of conjugated linoleic acid and metabolites in different lipid fractions in the rat liver. J Lipid Res 2001; 42: 1056-1061.). […]
Since saturated fatty acids are transparent to UV, they were measured, after methylation, by means of a gas chromatograph (Agilent, Model 6890, Palo Alto, Calif.) equipped with split ratio of 20:1 injection port, a flame ionization detector (FID), an autosampler (Agilent, Model 7673), a 100 m HP-88 fused capillary column (Agilent), and an Agilent ChemStation software system. […]

On to `CCCCCCCC/C=C\CCCCCCCCCCCC(=O)O` [erucic acid], for which, in data set [1], the myocardial lipidosis result is “cause in the long run myocardial lipidosis”. In addition, in data set [2], the “passage through the blood-brain barrier” value is given as “hardly passes through the blood-brain barrier”.
For the compound conjugated linoleic acid [CLA], the “passage through the blood-brain barrier” value in data set [3] is reported as “capable of passing through the blood-brain barrier”. For the same compound, the “passage of CLA through the blood-brain barrier” value in data set [4] was “prompt entry of CLA through the blood-brain barrier in humans”.

Source of the values: US20110306664A1, “MEDICAL DIETARY COMPOSITION FOR TREATING NEURODEGENERATIVE DISEASES” (SOFEDUS S.R.L., priority 2008, published 2011).
